Measurements: patent US6737383B1, “Herbicidal oxadiazolidines” (priority 1999, dated 2004)

What was measured:
[1] = tested on: blackgrass; experiment: Test B pre/postemergence blackgrass; format: in vivo, Alopecurus myosuroides
In short: (§1)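 Response is a visual 0-to-10 score relative to untreated plants, where 0 means no effect and 10 means complete control, taken twelve to sixteen days after application. Treatments went onto soil at planting and onto foliage of 1- to 4-leaf plants, using a surfactant-containing non-phytotoxic solvent.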

[2] = tested on: rape; experiment: Test B pre/postemergence rape; format: in vivo, Brassica napus
In short: as §1

[3] = tested on: smallflower flatsedge; experiment: Test B flood test smallflower flatsedge; format: in vivo, Cyperus difformis
In short: (§2)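 Plants were grown to the 2-leaf stage before treatment with test chemical, then held in a greenhouse for twelve to sixteen days. Injury was visually rated against untreated controls on a 0–10 scale, where 0 is no effect and 10 is complete control.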

[4] = tested on: corn; experiment: Test B pre/postemergence corn; format: in vivo, Zea mays
In short: as §1

[5] = tested on: soybean; experiment: Test B pre/postemergence soybean; format: in vivo, Glycine max
In short: as §1

[6] = tested on: bamyardgrass; experiment: Test B flood test barnyardgrass; format: in vivo, Echinochloa crus-galli
In short: as §2

[7] = tested on: bedstraw; experiment: Test B pre/postemergence bedstraw; format: in vivo, Galium aparine
In short: as §1

[8] = tested on: velvetleaf; experiment: Test B pre/postemergence velvetleaf; format: in vivo, Abutilon theophrasti
In short: as §1

[9] = tested on: pigweed; experiment: Test B pre/postemergence pigweed; format: in vivo, Amaranthus retroflexus
In short: as §1

[10] = tested on: cocklebur; experiment: Test B pre/postemergence cocklebur; format: in vivo, Xanthium strumarium
In short: as §1

[11] = tested on: surinam grass; experiment: Test B pre/postemergence surinam grass; format: in vivo, Brachiaria decumbens
In short: as §1

[12] = tested on: purple nutsedge; experiment: Test B pre/postemergence purple nutsedge; format: in vivo, Cyperus rotundus
In short: as §1

[13] = tested on: morningglory; experiment: Test B pre/postemergence morningglory; format: in vivo, Ipomoea hederacea
In short: as §1

[14] = tested on: wild oat; experiment: Test B pre/postemergence wild oat; format: in vivo, Avena fatua
In short: as §1

[15] = tested on: rice; experiment: Test B flood test rice; format: in vivo, Oryza sativa
In short: as §2

[16] = tested on: sugar beet; experiment: Test B pre/postemergence sugar beet; format: in vivo, Beta vulgaris
In short: as §1

[17] = Postemergence, Rate 62 g/ha, scale 0 to 10, 0 is no effect, 10 is complete control
[18] = Postemergence, Rate 250 g/ha, scale 0 to 10, 0 no effect, 10 complete control
[19] = Preemergence, Rate 62 g/ha, scale 0 to 10, 0 is no effect, 10 is complete control
[20] = Preemergence, Rate 125 g/ha, scale 0 to 10 (0 no effect, 10 complete control)
[21] = Preemergence, Rate 250 g/ha, scale of 0 to 10 where 0 is no effect and 10 is complete control
[22] = Preemergence, Rate 500 g/ha, scale 0 (no effect) to 10 (complete control)
[23] = Rate 125 g/ha, Postemergence, scale 0 to 10, 0 no effect, 10 complete control
[24] = Rate 500 g/ha, Postemergence, 0 to 10 scale (0 no effect, 10 complete control)
[25] = Rate 125 g/ha, Postemergence section (flood test species), scale 0 to 10, 0 no effect, 10 complete control
[26] = flood test, listed under Postemergence, Rate 250 g/ha, scale 0 to 10, 0 no effect, 10 complete control
[27] = Rate 500 g/ha, Postemergence section of Table B, 0 to 10 scale (0 no effect, 10 complete control)

Compound: CC(C)Oc1cc(-n2c(=O)on(C(=O)N(c3ccc(F)cc3)C(C)C)c2=O)c(Cl)cc1Cl [Compound 43]
- Blackgrass plant response rating [1, 17]: 0
- Blackgrass plant response rating [1, 18]: 0
- Plant response rating, Blackgrass [1, 19]: 0
- Plant response rating, Blackgrass [1, 20]: 0
- Plant response rating, Blackgrass [1, 21]: 0
- Blackgrass plant response rating [1, 22]: 1
- Blackgrass plant response rating [1, 23]: 0
- Blackgrass plant response rating [1, 24]: 4
- Rape plant response rating [2, 17]: 0
- Rape plant response rating [2, 18]: 0
- Plant response rating, Rape [2, 19]: 0
- Plant response rating, Rape [2, 20]: 0
- Plant response rating, Rape [2, 21]: 0
- Rape plant response rating [2, 22]: 0
- Rape plant response rating [2, 23]: 0
- S. Flatsedge plant response rating [3, 17]: 0
- S. Flatsedge plant response rating [3, 25]: 0
- S. Flatsedge plant response rating [3, 26]: 0
- Corn plant response rating [4, 17]: 0
- Corn plant response rating [4, 18]: 0
- Plant response rating, Corn [4, 19]: 0
- Plant response rating, Corn [4, 20]: 0
- Plant response rating, Corn [4, 21]: 0
- Corn plant response rating [4, 22]: 0
- Corn plant response rating [4, 23]: 0
- Corn plant response rating [4, 24]: 0
- Soybean plant response rating [5, 17]: 2
- Soybean plant response rating [5, 18]: 3
- Plant response rating, Soybean [5, 19]: 0
- Plant response rating, Soybean [5, 20]: 0
- Plant response rating, Soybean [5, 21]: 0
- Soybean plant response rating [5, 22]: 0
- Soybean plant response rating [5, 23]: 3
- Barnyardgrass plant response rating [6, 17]: 0
- Barnyardgrass plant response rating [6, 25]: 0
- Barnyardgrass plant response rating [6, 27]: 0
- Barnyardgrass plant response rating [6, 26]: 0
- Bedstraw plant response rating [7, 17]: 0
- Bedstraw plant response rating [7, 18]: 0
- Plant response rating, Bedstraw [7, 19]: 0
- Plant response rating, Bedstraw [7, 20]: 0
- Plant response rating, Bedstraw [7, 21]: 0
- Bedstraw plant response rating [7, 22]: 2
- Bedstraw plant response rating [7, 23]: 0
- Bedstraw plant response rating [7, 24]: 2
- Velvetleaf plant response rating [8, 17]: 0
- Velvetleaf plant response rating [8, 18]: 0
- Plant response rating, Velvetleaf [8, 19]: 0
- Plant response rating, Velvetleaf [8, 20]: 0
- Plant response rating, Velvetleaf [8, 21]: 0
- Velvetleaf plant response rating [8, 22]: 0
- Velvetleaf plant response rating [8, 23]: 0
- Redroot pigweed plant response rating [9, 17]: 1
- Plant response rating, Redroot pigweed [9, 19]: 0
- Plant response rating, Redroot pigweed [9, 20]: 0
- Plant response rating, Redroot pigweed [9, 21]: 0
- Redroot pigweed plant response rating [9, 22]: 4
- Redroot pigweed plant response rating [9, 23]: 2
- Redroot pigweed plant response rating [9, 24]: 6
- Cocklebur plant response rating [10, 17]: 0
- Cocklebur plant response rating [10, 18]: 0
- Plant response rating, Cocklebur [10, 19]: 0
- Plant response rating, Cocklebur [10, 20]: 0
- Plant response rating, Cocklebur [10, 21]: 0
- Cocklebur plant response rating [10, 22]: 0
- Cocklebur plant response rating [10, 23]: 0
- Cocklebur plant response rating [10, 24]: 1
- B. signalgrass plant response rating [11, 17]: 0
- B. signalgrass plant response rating [11, 18]: 0
- Plant response rating, B. signalgrass [11, 19]: 0
- Plant response rating, B. signalgrass [11, 20]: 0
- Plant response rating, B. signalgrass [11, 21]: 0
- B. signalgrass plant response rating [11, 22]: 0
- B. signalgrass plant response rating [11, 23]: 0
- B. signalgrass plant response rating [11, 24]: 0
- Nutsedge plant response rating [12, 17]: 0
- Nutsedge plant response rating [12, 18]: 0
- Plant response rating, Nutsedge [12, 19]: 0
- Plant response rating, Nutsedge [12, 20]: 0
- Plant response rating, Nutsedge [12, 21]: 0
- Nutsedge plant response rating [12, 22]: 0
- Nutsedge plant response rating [12, 23]: 0
- Nutsedge plant response rating [12, 24]: 0
- Morningglory plant response rating [13, 17]: 2
- Morningglory plant response rating [13, 18]: 3
- Plant response rating, Morningglory [13, 19]: 0
- Plant response rating, Morningglory [13, 20]: 0
- Plant response rating, Morningglory [13, 21]: 0
- Morningglory plant response rating [13, 22]: 0
- Morningglory plant response rating [13, 23]: 3
- Morningglory plant response rating [13, 24]: 4
- Wild oats plant response rating [14, 17]: 0
- Wild oats plant response rating [14, 18]: 0
- Plant response rating, Wild oats [14, 20]: 0
- Plant response rating, Wild oats [14, 21]: 0
- Wild oats plant response rating [14, 22]: 0
- Wild oats plant response rating [14, 23]: 0
- Rice plant response rating [15, 17]: 0
- Rice plant response rating [15, 25]: 0
- Rice plant response rating [15, 27]: 0
- Rice plant response rating [15, 26]: 0
- Sugarbeets plant response rating [16, 17]: 0
- Sugarbeets plant response rating [16, 18]: 1
- Plant response rating, Sugarbeets [16, 19]: 0
- Plant response rating, Sugarbeets [16, 20]: 0
- Plant response rating, Sugarbeets [16, 21]: 0
- Sugarbeets plant response rating [16, 22]: 0
- Sugarbeets plant response rating [16, 23]: 1
